Here are results for two compounds from patent US8859599B2, “Androgen receptor modulating compounds, preparation and uses thereof” (priority 2009, dated 2014).

Series [1] relates to LNCaP cells. Description: Sulforhodamine B (SRB) in vitro chemosensitivity assay on LNCaP cells. The series is classed as cell-based. The settings on record: for GI50 / LC50: Homo sapiens, LNCaP, 144 h; for GI50: read-out: Growth inhibition (GI50), LNCaP cells, 144 h exposure; for LC50: read-out: cytocidal effects by 50% (LC50), LNCaP cells, 144 h exposure, n.r. = not reached; for cytocidal (cell killing) activity: LNCaP cells, 144 h exposure. Here is the method: (§1) Sulforhodamine B (SRB) assay was used according to the method by Skehan et al. (JNCI, 1990). Briefly, cells were collected by trypsinization, counted and plated at a density of 5,000 cells/well in 96-well flat-bottomed microtiter plates (100 μl of cell suspension/well). In the chemosensitivity assay, experiments were run in octuplicate, and each experiment was repeated three times. The optical density (OD) of cells was determined at a wavelength of 490 nm by a colorimetric plate reader.
(§2) Growth inhibition and cytocidal effect of drugs were calculated according to the formula reported by Monks et al. (JNCI, 1991): [(ODtreated−ODzero)/(ODcontrol−ODzero)]×100%, when ODtreated is > to ODzero. If ODtreated is above ODzero, treatment has induced a cytostatic effect, whereas if ODtreated is below ODzero, cell killing has occurred. The ODzero depicts the cell number at the moment of drug addition, the ODcontrol reflects the cell number in untreated wells and the ODtreated reflects the cell number in treated wells on the day of the assay. TUNEL Assay
The authors examined the antitumour activity of the compounds for which the synthesis is described above, in the hormone-sensitive prostate cancer cell line LNCaP. (R)-Bicalutamide and the novel compounds were tested at the increasing concentrations of […]. The highest dose used was chosen on the basis of the clinically achievable peak plasma concentration reported in the literature for bicalutamide (Cockshott I D. Clin Pharmacokinet. 2004; 43 (13) 855-78).
After 144-hr exposure time, the cytotoxic effect of the molecules was calculated according to the method of Monks et al. (Monks A, et al., J. Nat. Cancer Inst. 1991; 83: 757-66).

A further series deals with PC-3. Description: SRB cytotoxicity on PC-3 cells. The format is cell-based, human. The settings on record: PC-3 cells (no AR), 144 h exposure. Here is the method: (§3) Finally, compounds were also tested on HepG2 cells, originally isolated from a primary hepatoblastoma of a child, purchased from ATCC.
as §1, §2
(§4) The authors tested the antitumour activity of the compounds also on PC-3 and DU145 cancer cell lines, representative of hormone-refractory prostate cancer due to AR receptor absence.

The next series relates to DU145. The series is described as follows: SRB cytotoxicity on DU145 cells. The series is classed as cell-based, human. The settings on record: DU145 cells (no AR), 144 h exposure. Here is the method: as §3, §1, §2, §4
The subject of series [2] is LNCaP cells. Description: TUNEL assay of apoptotic cells in LNCaP. The series is classed as cell-based, human. The settings on record: 144-h exposure, 20.0 μM. On the procedure: Cells were fixed in 1% paraformaldehyde in PBS on ice for 15 min, suspended in ice cold ethanol (70%) and stored overnight at −20° C. Cells were then washed twice in PBS and resuspended in PBS containing 0.1% Triton X-100 for 5 min at 4° C. Thereafter, samples were incubated in 50 μl of solution containing TdT and FITC-conjugated dUTP deoxynucleotides 1:1 (Roche Diagnostic GmbH, Mannheim, Germany) in a humidified atmosphere for 90 min at 37° C. in the dark, washed in PBS, counterstained with propidium iodide (2.5 μg/ml, MP Biomedicals, Verona, Italy) and RNAse (10 Kunits/ml, Sigma Aldrich, Milan, Italy) for 30 min at 4° C. in the dark and analyzed by flow cytometry.
After the end of drug exposures, medium was removed and cells were detached from the flasks by trypsin treatment, washed twice with PBS and stained according to the different methods specified below. Flow cytometric analysis was performed using a FACS Canto flow cytometer (Becton Dickinson, San Diego, Calif.). Data acquisition and analysis were performed using FACSDiva software (Becton Dickinson). Samples were run in triplicate and 10,000 events were collected for each replica. Data were the average of three experiments, with errors under 5%.
The cells, before TUNEL assay, were continuously exposed to the anti-androgen compounds for 144 hours at the concentration of 20.0 μM.

For the next series, the system named is LNCaP-AR cells. The series is described as follows: TUNEL assay of apoptotic cells in LNCaP-AR. The format is cell-based, human. The settings on record: 20.0 μM; for Apoptotic cells (%): LNCaP-AR, 144-h exposure, TUNEL.
Series [3] has as its system normal stem cells derived from human peripheral blood stem cells. The series is described as follows: Colony-forming cell assay (GM-CFU). The format is cell-based. The settings on record: highest concentration tested, 14 days incubation. On the procedure: The colony-forming cell assay was used as previously described [Motta M R et al., Exp Hematol 1997; 25:1261-1269]. In brief, for each molecule, 5×10^4 cells were plated in duplicate in a complete culture medium (MethoCult H4434, StemCell Technologies, Vancouver, Canada) containing different concentrations (0.2, 2, and 20 μmol/l) of the compound. After 14 days of incubation in a humidified atmosphere of 5% CO2 at the temperature of 37° C., granulocyte macrophage colony-forming unit (GM-CFU) aggregates of more than 50 cells were counted. Control cells were incubated under the same conditions but in drug-free medium.
The authors also evaluated the potential toxicity of some of the novel compounds in normal cells as the ability of the drugs to inhibit clonogenic growth of normal stem cells derived from human peripheral blood stem cells (FIG. 37). The exposure of hematopoietic precursor to the compounds, caused low ((S)-37) or negligible (, (R)-22, (R)-23, (R)-10) toxicity at the highest concentration tested.

In the next series the test system is HepG2 cells. The series is described as follows: Cytotoxic activity on hepatoblastoma cell line HepG2. The format is cell-based, human. The settings on record: up to highest concentration tested. Here is the method: as §3, §1, §2
(§5) The authors evaluated in vitro the potential hepato-toxicity of some of the novel compounds on HepG2 cell line, a human hepatoblastoma cell line that retains the specialized function of normal hepatocytes [Knowles B B, et al., Science 1980, 209:497-499; Aden D P, et al., Nature, 1979, 282:615-616].

Test in series [4]: as above
The settings on record: human, HepG2 cells. The series is classed as cell-based, human. On the procedure: as §3, §1, §2, §5

As to `CS(=O)(=O)N[C@@](Cc1ccccc1)(CS(=O)(=O)c1ccc(F)cc1)C(=O)Nc1ccc(C#N)c(C(F)(F)F)c1` [(R)-10, (R)-2-benzyl-N-(4-cyano-3-(trifluoromethyl)phenyl)-3-(4-fluorophenylsulfonyl)-2-(methylsulfonamido)propanamide], in the series on LNCaP cells [1], the GI50 came to 7.4 µM. Besides, the LC50 with LNCaP cells [1] worked out at 17.7 µM. Besides, the “cytocidal (cell killing) activity” value in the series with LNCaP cells [1] is reported as “cytocidal activity”. Also, the “cytotoxic properties compared to effects on LNCaP and LNCaP-AR cells” value (“cytotoxic properties compared to effects” for short) with PC-3 and in the series with DU145 was “significant reduction in their cytotoxic proprieties” each time. Further, the “Apoptotic cells (%)” value in the series on LNCaP cells [2] is on record as 35.5%; in the series with LNCaP-AR cells it was 42.7%. Also, the “apoptosis induction in the LNCaP derivative cell line versus LNCaP” value in the series with LNCaP-AR cells (144 h) was “more active”. The “toxicity: inhibition of clonogenic growth of hematopoietic precursors” value in series [3] is listed as “negligible”. Besides, the potential hepato-toxicity entry in the series with HepG2 cells was “negligible toxicity”.

As for `N#Cc1ccc(N2C(=O)[C@](Cc3ccc(F)cc3)(c3ccccc3)NC2=S)cc1C(F)(F)F` [(S)-37], in the series with LNCaP cells [1], the GI50 was found to be 5.8 µM, the LC50 was found to be 16.8 µM and the “cytocidal (cell killing) activity” value was “cytocidal activity”. Moreover, the “cytotoxic properties compared to effects” value in the series on PC-3 is given as “significant reduction in their cytotoxic proprieties”. Besides, the “cytotoxic properties compared to effects” value in the series with DU145 is on record as “significant reduction in their cytotoxic proprieties”. For the same compound, the “Apoptotic cells (%)” value with LNCaP cells [2] came to 93.4%. Moreover, the “Apoptotic cells (%)” value in the series on LNCaP-AR cells came to 89.5%. Besides, in series [3], the “toxicity: inhibition of clonogenic growth of hematopoietic precursors” value is “low”. For the same compound, in series [4], the GI50 turned out to be 7.4 µM and the LC50 (concentration killing 50% of cells) is 17.7 µM. The potential hepato-toxicity entry in the series with HepG2 cells is “significant toxicity”.
